Laboratory results taken from publication PMC9468552 (Clinical and Translational Science, 2022).

What was measured:
CYP3A4 [1] = molecular target: T1, CYP3A4 (Homo sapiens, UniProt P08684); assay: Study 004: DDI of EDP‐305; type: in vivo; conditions: for Cmax: human, plasma, oral, Geo LSMean
OATP1B1/B3 and BCRP = assay: Study 004: DDI of EDP‐305; type: in vivo, human
CYP3A4 [2] = molecular target: T1, CYP3A4; assay: Study 008: effect of EDP‐305 on combined oral contraceptive; type: in vivo; conditions: for AUC0,t, Geo LSMean ratio (90% CI) / Cmax, Geo LSMean ratio (90% CI): OC + EDP‐305 vs OC alone; for AUC(0-t) / Cmax: human, plasma, oral, Geo LSMean, day 21; for AUC(0-t): AUC0,t; for Peak and systemic exposures (Cmax and AUC0‐τ), OC + EDP‐305 vs OC alone: in words
CYP1A2 = molecular target: T2, CYP1A2 (Homo sapiens, UniProt P05177); assay: Study 004: DDI of EDP‐305; type: in vivo; conditions: for Cmax: human, plasma, oral, Geo LSMean
T2 sequence (P05177 1-516): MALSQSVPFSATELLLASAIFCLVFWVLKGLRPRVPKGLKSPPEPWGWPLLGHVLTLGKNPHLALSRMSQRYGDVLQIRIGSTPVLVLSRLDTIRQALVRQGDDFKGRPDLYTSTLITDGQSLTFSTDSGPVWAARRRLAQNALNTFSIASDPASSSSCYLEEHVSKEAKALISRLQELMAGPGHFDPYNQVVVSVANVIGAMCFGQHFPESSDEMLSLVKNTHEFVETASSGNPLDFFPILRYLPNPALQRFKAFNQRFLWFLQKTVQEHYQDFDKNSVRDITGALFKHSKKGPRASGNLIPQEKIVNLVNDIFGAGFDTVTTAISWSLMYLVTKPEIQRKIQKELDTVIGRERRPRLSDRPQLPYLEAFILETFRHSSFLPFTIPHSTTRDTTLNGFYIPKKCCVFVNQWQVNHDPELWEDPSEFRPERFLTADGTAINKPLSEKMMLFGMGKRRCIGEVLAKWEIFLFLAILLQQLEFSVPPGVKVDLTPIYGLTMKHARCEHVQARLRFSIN

[3] = midazolam 2 mg + EDP‐305 10 mg (test)
[4] = midazolam + EDP‐305 vs midazolam alone
[5] = rosuvastatin + EDP‐305 vs rosuvastatin alone
[6] = OC + EDP‐305 2.5 mg tablet (test)
[7] = caffeine + EDP‐305 vs caffeine alone

T1 sequence (P08684 whole entry): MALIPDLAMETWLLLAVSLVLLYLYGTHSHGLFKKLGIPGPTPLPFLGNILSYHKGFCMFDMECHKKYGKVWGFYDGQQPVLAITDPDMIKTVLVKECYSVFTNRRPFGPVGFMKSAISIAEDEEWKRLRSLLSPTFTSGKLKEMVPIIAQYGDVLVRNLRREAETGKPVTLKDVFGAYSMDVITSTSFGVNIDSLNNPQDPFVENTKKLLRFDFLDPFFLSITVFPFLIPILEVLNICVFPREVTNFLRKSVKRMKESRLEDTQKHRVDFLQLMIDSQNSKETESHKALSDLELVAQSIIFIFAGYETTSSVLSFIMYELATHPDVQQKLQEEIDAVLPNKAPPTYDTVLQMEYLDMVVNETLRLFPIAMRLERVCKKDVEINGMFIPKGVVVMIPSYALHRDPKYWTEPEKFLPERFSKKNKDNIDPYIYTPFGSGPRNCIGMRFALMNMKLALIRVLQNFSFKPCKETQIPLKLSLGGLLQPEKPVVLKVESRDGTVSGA

Cc1ncc2n1-c1ccc(Cl)cc1C(c1ccccc1F)=NC2 [midazolam]
Cmax (CYP3A4 [1]; 2 mg, midazolam 2 mg alone (reference)): 7.51 ng/mL | Cmax (CYP3A4 [1]; [3]): 9.41 ng/mL | AUC0,inf, Geo LSMean (CYP3A4 [1]; [3]): 32.22 ng·h/mL | delayed Tmax (increase) (CYP3A4 [1]; [4]): 98% | increase in AUC0‐t (CYP3A4 [1]; [4]): 1.53 fold | longer t1/2 (increase) (CYP3A4 [1]; [4]): 34% | lower CL/F (decrease) (CYP3A4 [1]; [4]): 36% | lower Vd/F (decrease) (CYP3A4 [1]; [4]): 14%

CC(C)c1nc(N(C)S(C)(=O)=O)nc(-c2ccc(F)cc2)c1/C=C/[C@@H](O)C[C@@H](O)CC(=O)O [rosuvastatin]
Cmax (OATP1B1/B3 and BCRP; human, plasma, oral, Cmax, Geo LSMean, rosuvastatin 20 mg + EDP‐305 10 mg (test)): 5.59 ng/mL | effect on Tmax (OATP1B1/B3 and BCRP; [5]): no apparent effect | increase in AUC0‐t (OATP1B1/B3 and BCRP; [5]): 1.24 fold | longer t1/2 (increase) (OATP1B1/B3 and BCRP; [5]): 17% | lower CL/F (decrease) (OATP1B1/B3 and BCRP; [5]): 20%

CC(C)c1nc(NS(C)(=O)=O)nc(-c2ccc(F)cc2)c1/C=C/[C@@H](O)C[C@@H](O)CC(=O)O [N‐desmethyl‐rosuvastatin]
GM AUCR0‐inf, metabolite‐to‐parent ratio (OATP1B1/B3 and BCRP; rosuvastatin administered alone): 16.6% | GM AUCR0‐inf, metabolite‐to‐parent ratio (OATP1B1/B3 and BCRP; rosuvastatin administered with EDP‐305): 11.2%

C#C[C@]1(O)CC[C@H]2[C@@H]3CCC4=CC(=NO)CC[C@@H]4[C@H]3CC[C@@]21CC (mixture of isomers) [norelgestromin]
AUC0,t, Geo LSMean ratio (90% CI) (CYP3A4 [2]): 0.99 (0.92, 1.05) | Cmax, Geo LSMean ratio (90% CI) (CYP3A4 [2]): 0.94 (0.86, 1.02) | AUC(0-t) (CYP3A4 [2]; OC alone (reference)): 25.9 ng·h/mL | Cmax (CYP3A4 [2]; [6]): 2.47 ng/mL | Cmax (CYP3A4 [2]; OC alone (reference)): 2.64 ng/mL | Peak and systemic exposures (Cmax and AUC0‐τ), OC + EDP‐305 vs OC alone (CYP3A4 [2]): similar

C#C[C@]1(O)CC[C@H]2[C@@H]3CCC4=CC(=O)CC[C@@H]4[C@H]3CC[C@@]21CC [levonorgestrel]
AUC0,t, Geo LSMean ratio (90% CI) (CYP3A4 [2]): 1.31 (1.23, 1.39) | Cmax, Geo LSMean ratio (90% CI) (CYP3A4 [2]): 1.29 (1.21, 1.38) | AUC(0-t) (CYP3A4 [2]; OC alone (reference)): 57.2 ng·h/mL | Cmax (CYP3A4 [2]; [6]): 3.85 ng/mL | Cmax (CYP3A4 [2]; OC alone (reference)): 2.99 ng/mL

C#C[C@]1(O)CC[C@H]2[C@@H]3CCc4cc(O)ccc4[C@H]3CC[C@@]21C [ethinyl estradiol]
AUC0,t, Geo LSMean ratio (90% CI) (CYP3A4 [2]): 1.08 (1.00, 1.16) | Cmax, Geo LSMean ratio (90% CI) (CYP3A4 [2]): 1.08 (0.99, 1.19) | AUC(0-t) (CYP3A4 [2]; OC alone (reference)): 1.25 ng·h/mL | Cmax (CYP3A4 [2]; [6]): 0.148 ng/mL | Cmax (CYP3A4 [2]; OC alone (reference)): 0.137 ng/mL | Peak and systemic exposures (Cmax and AUC0‐τ), OC + EDP‐305 vs OC alone (CYP3A4 [2]): similar

OCc1ncc2n1-c1ccc(Cl)cc1C(c1ccccc1F)=NC2 [1′‐hydroxymidazolam]
GM AUCR0‐inf, metabolite‐to‐parent ratio (CYP3A4 [1]; midazolam administered alone): 39.1% | GM AUCR0‐inf, metabolite‐to‐parent ratio (CYP3A4 [1]; midazolam administered with EDP‐305): 20.6%

Cn1c(=O)c2c(ncn2C)n(C)c1=O [caffeine]
delayed Tmax (increase) (CYP1A2; [7]): 50% | effect on Vd/F (CYP1A2; [7]): little effect | increase in AUC0‐t (CYP1A2; [7]): 1.90 fold | longer t1/2 (increase) (CYP1A2; [7]): 64% | lower CL/F (decrease) (CYP1A2; [7]): 45% | Cmax (CYP1A2; 200 mg, caffeine 200 mg alone (reference)): 4190 ng/mL | Cmax (CYP1A2; caffeine 200 mg + EDP‐305 10 mg (test)): 4720 ng/mL
